The conditions of series [1]: male, beagle, dog, in vivo, po.
Method: (§1) 4 groups of 1 male beagle dog per group received an oral gavage dose of VS-6063 in various formulations in a 4-session crossover design with a minimum 3-day washout period between dose sessions. In each session, VS-6063, VS-6063-25% SDD in Soluplus/PVP-A, VS-6063-25% physical mixture with Soluplus/PVP-A, and VS-6063-10% SDD in [sequence] L100-55 were administered at a target dose level of 10 mg API/kg. Blood samples (anticoagulant: K2EDTA) were scheduled for collection from each animal prior to dosing and at 0.25, 0.5, 1, 2, 4, 6, 8, 12 and 24 hours after dosing in each dose session. Blood samples were processed for plasma and the plasma was analyzed for VS-6063 by LC-MS/MS. Plasma concentration-time data for individual animals were analyzed to determine the pharmacokinetic profiles of VS-6063.
(§2) 4 groups of 1 male beagle dog per group received an oral gavage dose of VS-6063 in various formulations in a 4-session crossover design with a minimum 3-day washout period between dose sessions. In each session, VS-6063-25% physical mixture with Soluplus/PVP-A and VS-6063-25% SDD in Soluplus/PVP-A were administered at a target dose level of 20 mg API/kg and VS-6063-50% physical mixture with Soluplus/PVP-A was administered at target dose levels of 10 and 20 mg API/kg. Blood samples (anticoagulant: K2EDTA) were scheduled for collection from each animal prior to dosing and at 0.25, 0.5, 1, 2, 4, 6, 8, 12 and 24 hours after dosing in each dose session. Blood samples were processed for plasma and the plasma was analyzed for VS-6063 by LC-MS/MS. Plasma concentration-time data for individual animals were analyzed to determine the pharmacokinetic profiles of VS-6063.
(§3) VS-6063 was formulated (0.934 correction factor) at a target concentration of 10 mg API/mL in 0.5% (w/v) Methocel A4M in water with 0.1% (v/v) Tween 80. VS-6063-25% SDD in Soluplus/PVP-A was formulated (0.25 correction factor) at a target concentration of 10 mg API/mL in 0.5% (w/v) Methocel A4M in water. VS-6063-25% physical mixture with Soluplus/PVP-A was formulated (0.25 correction factor) at a target concentration of 10 mg API/mL in 0.5% (w/v) Methocel A4M in water. VS-6063-10% SDD in [sequence] L100-55 was formulated (0.10 correction factor) at a target concentration of 10 mg API/mL in 0.5% (w/v) Methocel A4M in water.
(§4) VS-6063-25% physical mixture with Soluplus/PVP-A and VS-6063-25% SDD in Soluplus/PVP-A were formulated (0.25 correction factor) at a target concentration of 10 mg API/mL in 0.5% (w/v) Methocel A4M in water. VS-6063-50% Physical mixture with Soluplus/PVP-A was formulated (0.50 correction factor) at target concentrations of 5 mg API/mL and 10 mg API/mL in 0.5% (w/v) Methocel A4M in water.
(§5) 4 groups of 1 male beagle dog per group received an oral gavage dose of VS-6063 in various formulations in a 4-session crossover design with a minimum 3-day washout period between dose sessions. In each session, VS-6063, VS-6063-25% SDD in Soluplus/PVP-A, VS-6063-25% physical mixture with Soluplus/PVP-A and VS-6063-10% SDD in [sequence] […] Food was returned at 4 hours post-dose.
(§6) Prior to dosing, the body weight of each animal was recorded. Doses (rounded to the nearest 0.01 mL) were calculated based on the pretreatment body weight (kg) and a dose volume of 1 mL/kg. Following the oral gavage dose, the gavage tube was flushed with 10 to 20 mL of water prior to removal of the tube. Dosing syringes were weighed immediately prior to and immediately after dosing each animal, and the quantity of formulation administered to each animal was determined from the difference in syringe weights.
(§7) 4 groups of 1 male beagle dog per group received an oral gavage dose of VS-6063 in various formulations in a 4-session crossover design with a minimum 3-day washout period between dose sessions.
A short description of series [2]: Phase I study: safety and tolerability (adverse events) of VS-6063 tablets. Format: in vivo, human (healthy male subjects). The source says:
In a Phase I, open-label, single center, single dose, partially randomized trial, the safety, bioavailability, and pharmacodynamics of prototype and reference formulations of VS-6063 were investigated in healthy male subjects. The study was comprised of four periods, each of which adhered to the same study design and involved 24 healthy male subjects between 40 and 65 years of age with a body mass index between 18.0 and 35.0 kg/m^2. Following a 28 day screening period, the subjects were admitted to the clinical unit the morning prior to dosing day (Day −1) and were dosed in the morning of Day 1. Subjects in Regimens A and B were administered VS-6063 following an overnight fast of about 10 hours, while subjects in Regimens C and D were administered VS-6063 within 30 minutes of starting a high fat breakfast, which was consumed within 25 minutes. Subjects remained on site until 36 hours after dosing. There was a minimum washout period of 7 days between the administration of each regimen. A follow-up phone call took place 7 to 10 days post final dose in periods 3 and 4 to ensure the ongoing well-being of the subjects.

Series [3] in a line: in vivo. As to conditions: male, beagle, dog, po.
Method: as §1, §2, §3, §4, §5, §6, §7

SMILES strings stand for the structures. Like-named read-outs stand apart in the source and are kept apart here.

Compound `CNC(=O)c1ccc(Nc2ncc(C(F)(F)F)c(NCc3nccnc3N(C)S(C)(=O)=O)n2)cc1` [VS-6063] displayed a Mean AUCinf/Dose in series [1] of 312 ng·h/mL per mg/kg. The Tmax (as a rule, the time at which the peak concentration occurs) in series [1] was 2.50 h; in series [1] (10 mg/kg), 4 h; in series [3] (10 mg/kg), 2 h; in series [3], 2 to 4 h. Further, the “incidence of AEs” value in series [2] (Regimen A (200 mg reference, fasted)) is given as 3 subjects; in series [2] (Regimen B (100 mg prototype, fasted)), 2 subjects; in series [2] (Regimen C (fed)) it was 5 subjects; in series [2] (Regimen D (fed)) it was 1 subject. In series [2] (single dose, fed and fasted, reference and prototype formulations), the tolerability entry is “well tolerated”. In series [2] (whole study), the “serious or severe adverse events” value is given as “no serious adverse events (AEs) or severe AEs”. In addition, the “total AEs reported” value in series [2] (whole study, reported by 9 subjects) was 12 AEs. The half-life – broadly, the time in which the quantity being followed falls by half – in series [3] (10 mg/kg, t1/2) is about 234 min.

Source of the values: US20150190346A1, “COMPOSITIONS AND METHODS FOR TREATMENT OF ABNORMAL CELL GROWTH” (VERASTEM, INC., priority 2014, published 2015).
